Laboratory results from paper PMC10906247, “From Functional Fatty Acids to Potent and Selective Natural-Product-Inspired Mimetics via Conformational Profiling” (ACS Central Science, 2024).
pEC50: −log10 of the molar value. Values joined by “and” are separate entries in the source; they are usually repeats but may differ in a detail not shown here. Equal entries are not always repeated. Where two headings read alike, the source gives them in different places.

Experiments:
[1] = biological target: T1, TLX ligand binding domain (Homo sapiens, UniProt Q9Y466); experiment: TLX ligand sensing assay (AlphaScreen, RIP140 NR box peptide recruitment); assay type: biochemical; settings: for TLX max. efficacy: oleic acid = 100
T1 construct: purchased NovAliX SAS, Strasbourg, France

GPR120 = biological target: T2, GPR120 (Homo sapiens, UniProt Q5NUL3); experiment: PathHunter β-arrestin assay (Eurofins Discovery), GPR120; assay type: cell-based; settings: for pEC50: β-arrestin assay, read-out: GPR120 EC50 measured; for GPR120 max. efficacy: oleic acid = 100
T2 sequence (Q5NUL3 1-361): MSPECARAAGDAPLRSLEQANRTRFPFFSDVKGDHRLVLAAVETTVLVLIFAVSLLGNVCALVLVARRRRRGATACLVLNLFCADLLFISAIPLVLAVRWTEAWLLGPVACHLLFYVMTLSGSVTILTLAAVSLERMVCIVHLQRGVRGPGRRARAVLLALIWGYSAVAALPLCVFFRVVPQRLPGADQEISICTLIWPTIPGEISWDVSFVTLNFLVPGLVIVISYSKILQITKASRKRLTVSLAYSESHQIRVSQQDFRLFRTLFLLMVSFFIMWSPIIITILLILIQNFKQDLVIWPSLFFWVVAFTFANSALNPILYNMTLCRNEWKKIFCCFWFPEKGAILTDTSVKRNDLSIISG
Method: (§1) With these compounds in hand, attention was directed at evaluating their properties as ligands to GPR40, GPR120,[24] and TLX. Initial profiling experiments were conducted targeting the GPCR targets at a single concentration (15 μM) in a commercially available β-arrestin assay.
(§2) Functional assays at GPR40 and GPR120 were conducted by Eurofins Discovery services using their PathHunter® b-Arrestin assay that monitors the activation of a GPCR in a homogenous, non-imaging assay format using a technology developed by DiscoverX called Enzyme Fragment Complementation (EFC) with b-galactosidase (b-Gal) as the functional reporter. b-Arrestin GPCR cell lines built on the principles of EFC are engineered to co-express the ProLinkTM (PK) tagged GPCR and the Enzyme Acceptor (EA) tagged b-Arrestin. Activation of the GPCR-PK induces b-Arrestin-EA recruitment, forcing complementation of the two b-galactosidase enzyme fragments (EA and PK). The resulting functional enzyme hydrolyzes substrate to generate chemiluminescent […]
(§3) Additional information can be found at: www.eurofinsdiscovery.com/solution/b-arrestin Below are dose-response curves generated from Eurofins Discovery services for activity of ligands depicted in Figure 6B at GPR40 (FFAR1) and GPR120. […]

GPR40 (FFAR1) = GPR40 (FFAR1) (Homo sapiens, UniProt O14842); experiment: PathHunter β-arrestin assay (Eurofins Discovery), GPR40; assay type: cell-based; settings: for pEC50 / GPR40 max. efficacy: dose-response; for pEC50: β-arrestin assay, read-out: GPR40 EC50 measured; for GPR40 max. efficacy: oleic acid = 100; for GPR40 potency relative to oleic acid: EC50 ratio vs control oleic acid
Method: as §1, §2, §3

[2] = Metabolic stability / intrinsic clearance in cryopreserved human hepatocytes; settings: for hepatocyte CLint at 1 µM / half-life at 1 µM: human
Method: To gain insight into potential metabolic issues, a preliminary assessment of 1-E and 3-C in a metabolic stability assay utilizing human hepatocytes was conducted.
7.1. ADME-Tox: In Vitro Metabolism
Intrinsic clearance (cr yopreserved hepatocytes, human)
Note: Unit of Clint is µ L/min/mg for microsomes, S9 and UGT assa ys; µL/min/pmol for CYP assays; µ L/min/Million cells for hepatocyte assays […]
8.1. Experimental Conditions
8.1.1. ADME-Tox: In Vitro Metabolism
8.2. Analysis and expression of results
8.2.1. ADME-Tox: In Vitro Metabolism
Intrinsic Clearance (microsomes, S9, cryopreserved hepatocytes, reco mbinant CYP, recombinant UGT) Metabolic stability, expressed as percent of the parent compound remaining , was calculated by comparing the peak area of the compound at the time point relative to that at time -0. The ha lf-life (T1/2) was estimated from the slope of the initial linear range of the logarithmic curve of compound remaining (%) vs. time, assu ming the first -order kinetics. The apparent intrinsic cleara nce (CLint, in µL/min/pmol, µL/min/mg or µL/min/Mcell ) was calculated according to the following formula: […]
T1/2*(mg protein/µL or million cells/µL or pmol CYP iso zyme/µL)

[3] = ALPHA normalized, supplement, read-out: TLX EC50 (dose-response curves)
[4] = maximal efficacy measured at 100 μM
[5] = coactivator recruitment, read-out: TLX EC50
[6] = cryopreserved human hepatocytes
[7] = cryopreserved human hepatocytes, Half-life (mean), human hepatocytes, 1.0E-06 M
[8] = cryopreserved human hepatocytes, Half-life, single replicates (1st, 2nd, 3rd), human hepatocytes, 1.0E-06 M

T1 sequence (Q9Y466 155-383 limits assumed): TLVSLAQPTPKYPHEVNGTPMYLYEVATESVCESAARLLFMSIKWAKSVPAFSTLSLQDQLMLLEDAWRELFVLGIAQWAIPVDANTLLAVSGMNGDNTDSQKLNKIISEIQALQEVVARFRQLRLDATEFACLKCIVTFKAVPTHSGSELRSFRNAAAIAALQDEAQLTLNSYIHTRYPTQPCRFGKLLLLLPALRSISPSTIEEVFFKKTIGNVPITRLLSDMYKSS
Chain of GPR40 (FFAR1) (O14842 whole entry): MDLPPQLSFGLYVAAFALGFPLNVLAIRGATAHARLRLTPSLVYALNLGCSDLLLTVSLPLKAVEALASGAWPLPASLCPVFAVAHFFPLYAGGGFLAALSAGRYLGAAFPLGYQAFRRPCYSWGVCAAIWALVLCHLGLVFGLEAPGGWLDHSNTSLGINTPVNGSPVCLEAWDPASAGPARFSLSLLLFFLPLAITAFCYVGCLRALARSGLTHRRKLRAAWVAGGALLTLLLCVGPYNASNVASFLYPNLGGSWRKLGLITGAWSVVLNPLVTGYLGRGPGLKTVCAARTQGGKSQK

Compound: CCCCCCCCCC/C=C(/C)C/C(C)=C/[C@H](C)CC(=O)O [1-A]
- pEC50 [1, 3]: 5.66

Compound: CCCCCCCCCC/C=C(/C)C/C(C)=C/[C@@H](C)CC(=O)O [1-B]
- pEC50 [1, 3]: 5.63

Compound: CCCCCCCCC[C@@H](C)/C=C(/C)C/C(C)=C/[C@H](C)CC(=O)O [1-C]
- pEC50 (GPR120; dose-response): < 4.29
- GPR120 max. efficacy (GPR120; [4]): 29%
- pEC50 (GPR40 (FFAR1)): 5.11
- GPR40 max. efficacy (GPR40 (FFAR1)): 109%
- pEC50 [1, 3]: 5.51

Compound: CCCCCCCCC[C@@H](C)/C=C(/C)C/C(C)=C/[C@@H](C)CC(=O)O [1-D]
- pEC50 [1, 3]: 5.50

Compound: CCCCCCCCC[C@H](C)/C=C(/C)C/C(C)=C/[C@@H](C)CC(=O)O [1-F]
- pEC50 (GPR120; dose-response): < 4.38
- GPR120 max. efficacy (GPR120; [4]): 31%
- pEC50 (GPR40 (FFAR1)): 5.14
- GPR40 max. efficacy (GPR40 (FFAR1)): 123%
- pEC50 [1, 3]: 5.73

Compound: CCCCCCCC/C=C(/C)C/C(C)=C/[C@H](C)CCCC(=O)O [2-A]
- pEC50 [1, 3]: 5.60

Compound: CCCCCCCC/C=C(/C)C/C(C)=C/[C@@H](C)CCCC(=O)O [2-B]
- pEC50 [1, 3]: 5.51

Compound: CCCCCCC[C@@H](C)/C=C(/C)C/C(C)=C/[C@H](C)CCCC(=O)O [2-C]
- pEC50 (GPR120; dose-response): 5.59
- GPR120 max. efficacy (GPR120; dose-response): 31%
- GPR40 potency relative to oleic acid (GPR40 (FFAR1)): ~7 times
- pEC50 (GPR40 (FFAR1)): 5.21 and ~5.30
- GPR40 max. efficacy (GPR40 (FFAR1)): 95%
- pEC50 [1, 3]: 5.82

Compound: CCCCCCC[C@@H](C)/C=C(/C)C/C(C)=C/[C@@H](C)CCCC(=O)O [2-D]
- pEC50 (GPR120; dose-response): ≤ 5.12 and 5.15 to 6.00
- GPR120 max. efficacy (GPR120; [4]): 44%
- GPR40 potency relative to oleic acid (GPR40 (FFAR1)): ~7 times
- pEC50 (GPR40 (FFAR1)): 5.26 and ~5.30
- GPR40 max. efficacy (GPR40 (FFAR1)): 87%
- pEC50 [1, 3]: 5.88

Compound: CCCCCCC[C@H](C)/C=C(/C)C/C(C)=C/[C@H](C)CCCC(=O)O [2-E]
- selectivity for GPR120 (GPR120; GPR120 over GPR40): 5 fold
- pEC50 (GPR120; dose-response): 5.96
- GPR120 max. efficacy (GPR120; dose-response): 35%
- GPR40 potency relative to oleic acid (GPR40 (FFAR1)): ~7 times
- pEC50 (GPR40 (FFAR1)): 5.30 and ~5.30
- GPR40 max. efficacy (GPR40 (FFAR1)): 68%
- pEC50 [1, 3]: 5.88

Compound: CCCCCCC[C@H](C)/C=C(/C)C/C(C)=C/[C@@H](C)CCCC(=O)O [2-F]
- pEC50 [1, 3]: 5.81

Compound: CCCCCC/C=C(/C)C/C(C)=C/[C@H](C)CCCCCC(=O)O [3-A]
- pEC50 [1, 3]: 5.81

Compound: CCCCCC/C=C(/C)C/C(C)=C/[C@@H](C)CCCCCC(=O)O [3-B]
- pEC50 [1, 3]: 6.03
- pEC50 [1, 5]: 6.05
- TLX max. efficacy [1]: 79%

Compound: CCCCC[C@@H](C)/C=C(/C)C/C(C)=C/[C@H](C)CCCCCC(=O)O [3-C]
- pEC50 [1, 3]: 6.09
- pEC50 [1, 5]: 6.10
- TLX max. efficacy [1]: 66%
- Half-life, single replicates (1st, 2nd, 3rd) ([2]; human hepatocytes, 1.0E-06 M, listed as GCM/LEM 3-C): 1.862 h and 1.848 h
- hepatocyte CLint at 1 µM [2, 6]: 8.7 µL/min/1e6 cells
- half-life at 1 µM [2, 7]: 1.9 h
- half-life at 1 µM [2, 8]: 1.97 h
- % Compound Remaining, mean ([2]; incubation 30 minutes, 1.0E-06 M): 96 % remaining
- % Compound Remaining, single replicates (1st, 2nd, 3rd) ([2]; incubation 30 minutes, 1.0E-06 M, listed as GCM/LEM 3-C): 97.3 % remaining and 95.1 % remaining and 96.7 % remaining
- % Compound Remaining, mean ([2]; incubation 60 minutes, 1.0E-06 M): 75 % remaining
- % Compound Remaining, single replicates (1st, 2nd, 3rd) ([2]; incubation 60 minutes, 1.0E-06 M, listed as GCM/LEM 3-C): 72.5 % remaining and 71.7 % remaining and 79.8 % remaining
- % Compound Remaining, mean ([2]; incubation 90 minutes, 1.0E-06 M): 57 % remaining
- % Compound Remaining, single replicates (1st, 2nd, 3rd) ([2]; incubation 90 minutes, 1.0E-06 M, listed as GCM/LEM 3-C): 59.1 % remaining and 54.4 % remaining and 53.2 % remaining
- % Compound Remaining, mean ([2]; incubation 120 minutes, 1.0E-06 M): 51 % remaining
- % Compound Remaining, single replicates (1st, 2nd, 3rd) ([2]; incubation 120 minutes, 1.0E-06 M, listed as GCM/LEM 3-C): 53.3 % remaining and 52.1 % remaining and 48.9 % remaining

Compound: CCCCC[C@@H](C)/C=C(/C)C/C(C)=C/[C@@H](C)CCCCCC(=O)O [3-D]
- pEC50 [1, 3]: 5.93

Compound: CCCCC[C@H](C)/C=C(/C)C/C(C)=C/[C@H](C)CCCCCC(=O)O [3-E]
- pEC50 [1, 3]: 6.02

Compound: CCCCC[C@H](C)/C=C(/C)C/C(C)=C/[C@@H](C)CCCCCC(=O)O [3-F]
- pEC50 [1, 3]: 6.05
- pEC50 [1, 5]: 6.05
- TLX max. efficacy [1]: 71%

Compound: CCCC/C=C(/C)C/C(C)=C/[C@H](C)CCCCCCCC(=O)O [4-A]
- pEC50 [1, 3]: 5.82

Compound: CCCC/C=C(/C)C/C(C)=C/[C@@H](C)CCCCCCCC(=O)O [4-B]
- pEC50 [1, 3]: 5.53

Compound: CCC[C@@H](C)/C=C(/C)C/C(C)=C/[C@H](C)CCCCCCCC(=O)O [4-C]
- activity against GPR120 (GPR120; from Figure 6A, 15 μM): inactive
- pEC50 [1, 3]: 5.81

Compound: CCC[C@@H](C)/C=C(/C)C/C(C)=C/[C@@H](C)CCCCCCCC(=O)O [4-D]
- pEC50 [1, 3]: 5.81

Compound: CCC[C@H](C)/C=C(/C)C/C(C)=C/[C@H](C)CCCCCCCC(=O)O [4-E]
- pEC50 [1, 3]: 5.88

Compound: CCC[C@H](C)/C=C(/C)C/C(C)=C/[C@@H](C)CCCCCCCC(=O)O [4-F]
- pEC50 [1, 3]: 5.72

Compound: CCN(CC)CCN1C(=O)CN=C(c2ccccc2F)c2cc(Cl)ccc21 [Flurazepam, reference compound]
- Half-life, single replicates (1st, 2nd, 3rd) ([2]; human hepatocytes, 1.0E-06 M): 0.797 h and 0.895 h
- hepatocyte CLint at 1 µM ([2]; hepatocytes): 19.3 µL/min/1e6 cells
- half-life at 1 µM ([2]; hepatocytes, Half-life (mean), human hepatocytes, 1.0E-06 M): 0.85 h
- half-life at 1 µM ([2]; hepatocytes, Half-life, single replicates (1st, 2nd, 3rd), human hepatocytes, 1.0E-06 M): 0.882 h

Compound: O=c1cc(C(F)(F)F)c2ccc(O)cc2o1 [HFC, reference compound]
- CLint ([2]; human hepatocytes, 1.0E-06 M): 47.3 μL/min/million cells
- Half-life (mean) ([2]; human hepatocytes, 1.0E-06 M): 0.35 h
- Half-life, single replicates (1st, 2nd, 3rd) ([2]; human hepatocytes, 1.0E-06 M): 0.348 h and 0.352 h and 0.347 h

Compound: C=CCN1CC[C@]23c4c5ccc(O)c4O[C@H]2C(=O)CC[C@@]3(O)[C@H]1C5 [Naloxone, reference compound]
- Half-life, single replicates (1st, 2nd, 3rd) ([2]; human hepatocytes, 1.0E-06 M): 1.47 h and 1.852 h
- hepatocyte CLint at 1 µM [2, 6]: 10.1 µL/min/1e6 cells
- half-life at 1 µM [2, 7]: 1.65 h
- half-life at 1 µM [2, 8]: 1.61 h

Compound: CC(C)NCC(O)COc1cccc2ccccc12 (stereo not shown) [Propanolol, Propranolol, reference compound]
- half-life at 1 µM [2, 7]: 3.12 h
- half-life at 1 µM [2, 8]: 3.25 h
